The assay relates to BDF1 mice, L1210 terephthalanilide-resistant leukemia ip, survival T/C. Nature of the assay: NCI In Vivo Anticancer Drug Screen. Data for tumor model L1210 Leukemia resistant to A Terephthalanilide; NSC 38280 (intraperitoneal) in B6D2F1 (BDF1) mice. To be noted: endpoint: mean survival time, higher = longer survival. On the procedure: The antitumor activity of compounds was measured in mice bearing transplantable tumors. Survival or tumor size were measured and the results are expressed as the measurement made in the treated group (T) divided by the measurement made in the vehicle treated control group (C). The tumor model used in this assay is L1210 Leukemia resistant to A Terephthalanilide; NSC 38280 (intraperitoneal) in B6D2F1 (BDF1) mice

[1] abbreviates: dose: 8.0 mg/kg/injection, schedule: Q01DX010 (ip), vehicle: saline.
Setting [2] is: dose: 12.0 mg/kg/injection, schedule: Q01DX010 (ip), vehicle: saline.
[3] abbreviates: dose: 18.0 mg/kg/injection, schedule: Q01DX010 (ip), vehicle: saline.
[4] abbreviates: dose: 13.3 mg/kg/injection, schedule: Q01DX010 (ip), vehicle: saline.
Where [5] appears, read: dose: 20.0 mg/kg/injection, schedule: Q01DX010 (ip), vehicle: saline.
The mark [6] stands for this setting: dose: 25.0 mg/kg/injection, schedule: Q01DX010 (ip), vehicle: saline.
Setting [7] is: dose: 50.0 mg/kg/injection, schedule: Q01DX010 (ip), vehicle: saline.
The mark [8] stands for this setting: dose: 6.25 mg/kg/injection, schedule: Q01DX010 (ip), vehicle: saline.
[9] abbreviates: dose: 12.5 mg/kg/injection, schedule: Q01DX010 (ip), vehicle: saline.
[10] abbreviates: dose: 2.5 mg/kg/injection, schedule: Q01DX Z (ip), vehicle: carboxymethylcellulose (CMC).
Setting [11] is: dose: 125.0 mg/kg/injection, schedule: Q01DX Z (ip), vehicle: saline.
[12] abbreviates: dose: 250.0 mg/kg/injection, schedule: Q01DX Z (ip), vehicle: saline.
[13] abbreviates: dose: 500.0 mg/kg/injection, schedule: Q01DX Z (ip), vehicle: saline.
[14] abbreviates: dose: 5.0 mg/kg/injection, schedule: Q01DX010 (ip), vehicle: saline.
Setting [15] is: dose: 5.0 mg/kg/injection, schedule: Q01DX Z (ip), vehicle: saline.

Values joined by “and” are separate entries in the source; they are usually repeats but may differ in a detail not shown here. Equal values may be shown once. Toxic doses and inconclusive results are not listed.

Turning to `O=C(Nc1ccc(C2=NCCN2)cc1)c1ccc(C(=O)Nc2ccc(C3=NCCN3)cc2)c([N+](=O)[O-])c1`, the T/C is 102 % of control and 108 % of control (dose: 6.0 mg/kg/injection, schedule: Q01DX010 (ip), vehicle: saline); 100 % of control and 113 % of control under setting [1]; 112 % of control and 119 % of control under setting [2]; 89 % of control and 95 % of control under setting [3].
For the compound `CN=C(NC)c1ccc(NC(=O)Nc2ccc(NC(=O)Nc3ccc(C(=NC)NC)cc3)cc2)cc1`, the T/C is 101 % of control under setting [4] and 101 % of control under setting [5].
Regarding `CN(C)/N=N/c1nc[nH]c1C(N)=O`, the T/C runs as follows: under setting [6], 123 % of control and 101 % of control; under setting [7], 114 % of control; (dose: 200.0 mg/kg/injection, schedule: Q01DX010 (ip), vehicle: saline) 102 % of control.
Consider `O=C(Nc1cccc(C(=O)Nc2ccc(C3=NCCN3)cc2)c1)c1ccc(C2=NCCN2)cc1`, for which the T/C (dose: 54.0 mg/kg/injection, schedule: Q01DX010 (ip), vehicle: saline) is 90 % of control.
With `CC(=O)O[C@]1(C(C)=O)CC[C@H]2[C@@H]3C[C@H](C)C4=CC(=O)C=C[C@]4(C)[C@@]3(F)[C@@H](O)C[C@@]21C`, the T/C by setting is: (dose: 12.5 mg/kg/injection, schedule: Q01DX010 (sc), vehicle: steriod suspending solution) 102 % of control; (dose: 25.0 mg/kg/injection, schedule: Q01DX010 (sc), vehicle: steriod suspending solution) 98 % of control; (dose: 50.0 mg/kg/injection, schedule: Q01DX010 (sc), vehicle: steriod suspending solution) 98 % of control; (dose: 50.0 mg/kg/injection, schedule: Q01DX Z (sc), vehicle: steriod suspending solution) 102 % of control; (dose: 75.0 mg/kg/injection, schedule: Q01DX Z (sc), vehicle: steriod suspending solution) 104 % of control; (dose: 100.0 mg/kg/injection, schedule: Q01DX010 (sc), vehicle: steriod suspending solution) 91 % of control. The T/C was 102 % of control (dose: 100.0 mg/kg/injection, schedule: Q01DX Z (sc), vehicle: steriod suspending solution) and 102 % of control (dose: 150.0 mg/kg/injection, schedule: Q01DX Z (sc), vehicle: steriod suspending solution).
Consider `CCCNc1ncnc2[nH]ncc12`, for which the T/C reads like this: (dose: 3.13 mg/kg/injection, schedule: Q01DX010 (ip), vehicle: saline) 92 % of control and 103 % of control; under setting [8], 96 % of control and 108 % of control; under setting [9], 95 % of control and 101 % of control; (dose: 12.5 mg/kg/injection, schedule: Q01DX Z (ip), vehicle: saline) 115 % of control; under setting [6], 92 % of control and 106 % of control; (dose: 50.0 mg/kg/injection, schedule: Q01DX Z (ip), vehicle: saline) 93 % of control.
With `O=NN(CCCl)C(=O)NCCCl`, the T/C is, setting by setting: under setting [8], 224 % of control; under setting [9], 105 % of control; under setting [6], 89 % of control.
As to `CC(CCC(C)OS(C)(=O)=O)OS(C)(=O)=O` (stereo not drawn), the T/C is, setting by setting: (dose: 2.0 mg/kg/injection, schedule: Q01DX010 (ip), vehicle: saline) 102 % of control; under setting [10], 94 % of control; (dose: 4.0 mg/kg/injection, schedule: Q01DX010 (ip), vehicle: saline) 95 % of control and 100 % of control; (dose: 5.0 mg/kg/injection, schedule: Q01DX Z (ip), vehicle: carboxymethylcellulose (CMC)) 97 % of control; (dose: 7.5 mg/kg/injection, schedule: Q01DX Z (ip), vehicle: carboxymethylcellulose (CMC)) 103 % of control; under setting [1], 100 % of control. Besides, the T/C by setting is: (dose: 10.0 mg/kg/injection, schedule: Q01DX Z (ip), vehicle: carboxymethylcellulose (CMC)) 111 % of control; (dose: 12.5 mg/kg/injection, schedule: Q01DX Z (ip), vehicle: carboxymethylcellulose (CMC)) 109 % of control; (dose: 16.0 mg/kg/injection, schedule: Q01DX010 (ip), vehicle: saline) 100 % of control and 112 % of control; (dose: 25.0 mg/kg/injection, schedule: Q01DX Z (ip), vehicle: carboxymethylcellulose (CMC)) 88 % of control; (dose: 32.0 mg/kg/injection, schedule: Q01DX010 (ip), vehicle: saline) 110 % of control.
With `CNc1nc(Nc2ccc(C3=NCCN3)cc2)nc(Nc2ccc(C3=NCCN3)cc2)n1`, the T/C under setting [4] was 100 % of control; the T/C under setting [5] is 94 % of control; the T/C (dose: 30.0 mg/kg/injection, schedule: Q01DX010 (ip), vehicle: saline) was 99 % of control; the T/C (dose: 45.0 mg/kg/injection, schedule: Q01DX010 (ip), vehicle: saline) was 97 % of control.
Take `O=CCC(O)C(O)C(O)CO` (stereo not drawn): the T/C was 96 % of control and 104 % of control (dose: 62.5 mg/kg/injection, schedule: Q01DX010 (ip), vehicle: saline); 112 % of control (dose: 62.5 mg/kg/injection, schedule: Q01DX Z (ip), vehicle: saline); 113 % of control (dose: 125.0 mg/kg/injection, schedule: Q01DX010 (ip), vehicle: saline); 108 % of control under setting [11]; 105 % of control and 113 % of control (dose: 250.0 mg/kg/injection, schedule: Q01DX010 (ip), vehicle: saline); 108 % of control under setting [12]. Further, the T/C by setting is: (dose: 500.0 mg/kg/injection, schedule: Q01DX010 (ip), vehicle: saline) 116 % of control and 118 % of control; under setting [13], 116 % of control.
On to `CS(=O)(=O)OCCCCOS(C)(=O)=O`, for which the T/C under setting [8] is 98 % of control and 103 % of control; the T/C under setting [9] is 100 % of control and 102 % of control; the T/C under setting [6] was 93 % of control and 102 % of control; the T/C under setting [7] is 98 % of control and 100 % of control.
As for `Nc1ncnc2c1ccn2C1OC(CO)C(O)C1O` (stereo not drawn), the T/C runs as follows: (dose: 0.23 mg/kg/injection, schedule: Q01DX Z (ip), vehicle: saline) 98 % of control; (dose: 0.47 mg/kg/injection, schedule: Q01DX Z (ip), vehicle: saline) 113 % of control; (dose: 0.93 mg/kg/injection, schedule: Q01DX Z (ip), vehicle: saline) 109 % of control; (dose: 1.87 mg/kg/injection, schedule: Q01DX Z (ip), vehicle: saline) 116 % of control; under setting [10], 103 % of control.
For the compound `CN(C)c1ccc(/C=C\c2ccnc3ccccc23)cc1`, the T/C reads like this: under setting [14], 98 % of control; under setting [1], 100 % of control; under setting [2], 100 % of control; under setting [3], 92 % of control and 95 % of control; (dose: 18.75 mg/kg/injection, schedule: Q01DX Z (ip), vehicle: carboxymethylcellulose (CMC)) 101 % of control; (dose: 27.0 mg/kg/injection, schedule: Q01DX010 (ip), vehicle: saline) 89 % of control. The T/C (dose: 37.5 mg/kg/injection, schedule: Q01DX Z (ip), vehicle: carboxymethylcellulose (CMC)) was 95 % of control and the T/C (dose: 50.0 mg/kg/injection, schedule: Q01DX Z (ip), vehicle: carboxymethylcellulose (CMC)) was 90 % of control.
For `CCOC(=O)NP(=O)(N1CC1(C)C)N1CC1(C)C` (stereo not drawn), the T/C is, setting by setting: under setting [15], 101 % of control; (dose: 10.0 mg/kg/injection, schedule: Q01DX Z (ip), vehicle: saline) 115 % of control; (dose: 20.0 mg/kg/injection, schedule: Q01DX Z (ip), vehicle: saline) 121 % of control; (dose: 40.0 mg/kg/injection, schedule: Q01DX Z (ip), vehicle: saline) 151 % of control; (dose: 62.0 mg/kg/injection, schedule: Q01DX Z (ip), vehicle: saline) 164 % of control; under setting [11], 236 % of control. In addition, the T/C by setting is: under setting [12], 302 % of control; under setting [13], 100 % of control.
In the case of `C[C@@H]1C[C@@H]([C@H](O)CC2CC(=O)NC(=O)C2)C(=O)[C@@H](C)C1`, the T/C by setting is: (dose: 1.25 mg/kg/injection, schedule: Q01DX Z (ip), vehicle: saline) 101 % of control; (dose: 2.5 mg/kg/injection, schedule: Q01DX Z (ip), vehicle: saline) 107 % of control; under setting [14], 100 % of control and 105 % of control; under setting [15], 106 % of control; (dose: 7.5 mg/kg/injection, schedule: Q01DX Z (ip), vehicle: saline) 107 % of control; (dose: 10.0 mg/kg/injection, schedule: Q01DX010 (ip), vehicle: saline) 123 % of control and 113 % of control. Moreover, the T/C reads like this: under setting [5], 113 % of control and 117 % of control; (dose: 40.0 mg/kg/injection, schedule: Q01DX010 (ip), vehicle: saline) 115 % of control.

The record behind these values is PubChem BioAssay AID282 (DTP/NCI, 2004).
